Publication PMC8688955 (Frontiers in Pharmacology, 2021)
Where two headings read alike, the source gives them in different places.

Tests used:
CP-AMPARs = test: Whole-cell patch-clamp of kainate-induced currents in isolated striatal giant interneurons; type: cell-based, Wistar rat; settings: for % block: representative recording, Figure 1B; for % inhibition: 200 µM phenytoin, n = 5
Description: All experimental procedures were approved by the Animal Care and Use Committee of the I.M. Sechenov Institute of Evolutionary Physiology and Biochemistry of the Russian Academy of Sciences. Wistar rats (13–19 days old) were anesthetized with sevoflurane and then decapitated. Maximum effort was made to minimize the number of animals used. Brains were removed quickly and cooled to 2–4°C in an ice bath. […] Single neurons were freed from slices by vibrodissociation ([Vorobjev, 1991]). The antagonism of CP-AMPARs was studied on striatal giant interneurons ([Bernard et al., 1997]; [Gotz et al., 1997]), which were identified by their shape and size. […] The antagonism of CI-AMPARs was studied on pyramidal neurons from the CA1 area of the hippocampus.
(§1) Series resistance of about 20 MΩ was compensated by 70–80% and monitored during experiments. Currents were recorded using an EPC-8 amplifier (HEKA Electronics, Lambrecht, Germany), filtered at 5 kHz, sampled, and stored on a personal computer. Drugs were applied using the RSC-200 perfusion system (BioLogic Science Instruments, Claix, France) under computer control. The solution exchange time in the whole-cell mode was 50–60 ms. The extracellular solution contained (in mM) NaCl 143, KCl 5, MgCl2 2.0, CaCl2 2.5, D-glucose 18, and HEPES 10 (pH was adjusted to 7.3 with HCl). The pipette solution contained (in mM) CsF 100, CsCl 40, NaCl 5, CaCl2 0.5, EGTA 5, and HEPES 10 (pH was adjusted to 7.2 with CsOH). Experiments were performed at room temperature (22–24°C). […] Lamotrigine, topiramate, levetiracetam, felbamate, carbamazepine, tiagabin, vigabatrin, zonisamide, and gabapentin were purchased from Tocris Bioscience (Bristol, United Kingdom). Perampanel was from MedChemExpress (Stockholm, Sweden). Kinetics of transient processes of more than 20-ms duration was approximated by exponential functions. Experiments were performed at −80 mV holding voltage. All experimental data are presented as mean ± SD estimated from at least four experiments. Significance of the effects was tested with paired t test. Differences were considered significant at p < 0.05. 3D structures of compounds were calculated by the ZMM software (zmmsoft.ca).

[1] = Solubility in the extracellular solution; type: physicochemical; settings: concentrations above 500 µM could not be tested
Description: as §1, with “The whole-cell patch-clamp technique was used for recording of membrane currents generated in response to applications of kainate. Series” for “Series”, “All experimental data are presented as mean ± SD estimated from at least four experiments. Significance of the effects was tested with paired t test. Differences were considered significant at p < 0.05.” left out

[2] = biological target: non-NMDA glutamate receptors; parameters: method as in Phillips et al., 1997; settings: neocortical wedges; ref Phillips et al., 1997; cited from earlier work
[3] = biological target: non-NMDA glutamate receptors; parameters: method as in Kawano et al., 1994; settings: expressed in Xenopus oocytes; ref Kawano et al., 1994; cited from earlier work
[4] = biological target: voltage-gated sodium channels; parameters: method as in Kuo and Bean, 1994; Lenkowski et al., 2007; settings: ref Kuo and Bean, 1994; Lenkowski et al., 2007; read-out: Affinity to inactivated states of sodium channels; cited from earlier work

Structure (SMILES): O=C1NC(=O)C(c2ccccc2)(c2ccccc2)N1 [Phenytoin]
- % block (CP-AMPARs; 30 μM phenytoin): 19%
- % block (CP-AMPARs; 100 μM phenytoin): 38%
- % inhibition (CP-AMPARs; 50 µM kainate): 59 ± 5%
- % inhibition (CP-AMPARs; 500 µM kainate): 48 ± 2%
- % block, coapplication with agonist (CP-AMPARs; 300 µM phenytoin, n = 8): 60 ± 6%
- % block (CP-AMPARs; 300 μM phenytoin): 57%
- inhibition of kainate-induced currents (CP-AMPARs; 500 µM phenytoin, highest concentration tested): 58 ± 5%
- Hill coefficient (CP-AMPARs; inhibition of CP-AMPARs, Hill equation): 0.7 ± 0.2
- IC50 (CP-AMPARs; kainate-induced currents, Hill equation, −80 mV, read-out: IC50 CP-AMPARs): 250 ± 60 µM
- solubility in the extracellular solution [1]: poor solubility
- IC50 [2]: ≥ 100 µM
- IC50 [3]: ≥ 100 µM
- Kd [4]: 7 to 21 µM
